Data from patent US5981544A, “Mono-- or diketone tetracyclic derivatives and therapeutical uses thereof” (Laboratoire Innothera, priority 1995, dated 1999).
Where “and” joins values, the source holds several entries; their conditions need not be identical. Equal entries are not always repeated.

Key:
[1] = system: saphenous vein of rabbits; assay: Contractile effect on rabbit saphenous vein rings precontracted by depolarizing physiological solution (40 mM potassium); set-up: species or system rabbit (New Zealand); conditions: Oryctolagus cuniculus, precontracted at 40 mM potassium; for Emax: % of maximum contraction induced by depolarizing hyperpotassic solution, read-out: Emax (% of maximum contr.); for EC50: read-out: ED50 (the source's name)
Description: For the in vitro studies, the compounds are made soluble in a pure aqueous solution or a solution containing DMSO (dimethyl sulfoxide).
Contractile effects are measured, in vitro and under static conditions, on capacitance or resistance vascular rings of the saphenous, femoral, jugular, mesenteric, and caval veins; and on the femoral, carotid, basilar, mesenteric, and thoracic or abdominal aortic arteries, in rats (Wistar, 200 to 250 g), rabbits (New Zealand, 2 to 2.5 kg), and guinea pigs (Dunkin Hartley, 250 to 300 g).
The rings are placed in an isolated organ chamber (25 mL for capacitance vessels and 2.5 mL for resistance vessels, as per Mulvany), kept in isometric conditions by two stiff cables inserted into the interior of the vessel, avoiding any damage to the endothelium. The vessels are washed in a modified Krebbs solution (in mM: NaCl=118; KCl=4.6; ClCl2 =2.5; MgSO4 =1.2; KH2 PO4 =1.17; NcHCO3 =25; glucose=11), permanently aerated by a gaseous mixture at 95% O2 and 5% CO2, at pH=7.4 and set thermostatically at 37° C. The rings are taken to their optimal point of the tension-length ratio.
The tensions developed generate an electrical signal through a strength sensor (Wheatstone bridge). […] The pharmacological studies are carried out after some preliminary contractile stimulations standardized by a depolarizing solution (hyperpotassic solution obtained by replacing NaCl by KCl in equimolar quantities), rinses, and balancing periods in pure physiological solution. Presence of the endothelium is verified by the relaxation induced by increasing concentrations of acetylcholine after stabilization of a vascular precontraction.
The contraction forces developed by the vascular rings in response to the different compounds are studied on quiescent or electrically stimulated (5-8 Hz) vessels, using a hyperpotassic depolarizing physiological solution (KCl: 20, 40 mM), using noradrenaline (increasing concentrations), or using serotonin (increasing concentrations).
The contractions are expressed in mg of force or as a percentage of maximum contraction at depolarization by a hyperpotassic physiological solution.
The compounds of the invention and their derived salts selectively increase, in the majority of cases, the contraction of animal veins produced by noradrenaline, by electrical stimulation, or by a depolarizing hyperpotassic solution. By way of example, there is the contractile effect of different compounds on the saphenous vein of rabbits, precontracted by a depolarizing physiological solution with a potassium concentration equal to 40 mM; the maximum effect produced by each compound is expressed as the percentage of maximum contraction induced by the depolarizing hyperpotassic solutions and in ED50 values: […]

[2] = system: inflammatory hyperpermeability induced by zymosan in rats; assay: Effects on capillary hyperpermeability induced by zymosan in rats (Evans Blue albumin extravasation); assay type: in vivo, rat (Wistar); conditions: rat, oral
Description: (§1) As for the in vivo studies, they are administered intravenously or intraperitoneally in the form of an aqueous solution with or without DMSO, or orally in a 1% carboxymethylcellulose suspension, administered with the use of a force-feed probe at a volume of 10 mL/kg.
Effects on induced capillary hyperpermeability
Vascular permeability is studied in vivo by measuring albumin extravasation, the quantity of which is determined by a coloring agent bonded to the albumin (Evans Blue). Hyperpermeability is induced by the intradermal injection of a histamine, bradykinin, or zymosan solution.
The technique is derived from that described by Beach and Steinetz, Journal of Pharmacology and Experimental Therapy, 131: 400-406, 1961.
The rats (Wistars, 200 to 230 g) are shaved on the abdominal wall 1 h before the start of the experiment. The product to be tested is injected i.p. or orally 1-4 h prior to sacrificing. The rats are anesthetized using a halothane mixture. They then receive an intradermal injection in the abdomen of 0.10 to 0.15 mL of an inflammatory agent (by histamine 6.7 or 10 μg) and an i.v. injection of 1 mL of Evans blue 0.5% solution in the vein of the penis. These injections are carried out 30 min prior to sacrificing.
30 min after these two injections, the rats are sacrificed by cervical dislocation.
At the locus of injection of the inflammatory agent, the skin is cut off and placed in ground-neck glass tubes containing 3 mL of fuming hydrochloric acid. Digestion of the skin is carried out by contact [with HCl] of at least 1 h in a double boiler at 37° C.; 3 mL of benzalkonium chloride at 12.8% are then added. After leaving undisturbed for 30 min, 7 mL of dichloromethane are added. The tubes are periodically agitated for 1 h. The aqueous phase is eliminated by aspiration and the organic dichloromethane phase is filtered. The optical densities are quantified by absorption spectrophotometry at a 620 nm wavelength, against a blank [control] containing only dichloromethane.
The averages for optical density of the different lots of experimental and control animals are calculated, then the variation between the data for the experimental animals and those for the control animals is calculated.
By way of illustration, the oral administration of certain compounds of the invention and their derived salts reduce inflammatory hyperpermeability induced by zymosan in rats in doses generally between 0.01 and 5 mg/kg: […]

mice = assay: Acute oral toxicity in mice; assay type: in vivo; conditions: single oral administration, 1 g/kg
From the text: Furthermore, the compounds of the invention and their derived salts have a very low toxicity.

[3] = system: capillary resistance in rats; assay: Effects on capillary resistance (petechial index, negative pressure) after oral administration in rats; assay type: in vivo, rat (male Wistar); conditions: rat
Description: as §1
Effects on capillary resistance:
The increase in capillary resistance is detected by the change in the petechial index (negative pressure inducing the extravasation of erythrocytes), measured by a method derived from Parrot's angiosterrometer.
The study is carried out on male Wistar rats weighing an average of 200 g (aged approximately 6 weeks). The lower back area is shaved, then depilated with the use of a paste based on a by-product of thioglycolic acid and calcium hydroxide. After approximately 30 min, the skin is rinsed abundantly and dried.
On the day of the study, the rats are kept nonconstrained. A low pressure of 80 mm of mercury is applied.
The minimum low pressure at which the petechiae appear expressed in mm of mercury, the value of the base capillary resistance (before any treatment). Two measurements are carried out for each trial on different places on the back. The rats are treated orally. After a predetermined amount of time (generally 2, 4, or 6 h) after the treatment, the test is renewed on different areas of skin, until petechiae appear, yielding a new low pressure index. All measurements are carried out in the blind mode.
The variation between the means of the base capillary resistance and post-treatment capillary resistance is calculated for the experimental animals, for each treatment time and compared to the control group (excipient only) or the reference group.
By way of example, the oral administration of certain compounds of the invention and their derived salts increases the capillary resistance in rats at doses generally between 0.01 and 5 mg/kg: […]

SMILES | EC50 [1] | Emax [1] | Effect at 2 hours (hyperpermeability induced by zymosan) ([2]; 5 mg/kg) | Effect at 4 hours (hyperpermeability induced by zymosan) ([2]; 5 mg/kg) | mortality (mice) | toxic effect (mice) | Effect at 4 hours (capillary resistance) ([3]; 5 mg/kg) | Effect at 6 hours (capillary resistance) ([3]; 5 mg/kg) | Effect at 2 hours (hyperpermeability induced by zymosan) ([2]; 0.1 mg/kg) | Effect at 4 hours (hyperpermeability induced by zymosan) ([2]; 0.1 mg/kg) | Effect at 6 hours (capillary resistance) ([3]; 0.1 mg/kg) | Effect at 4 hours (capillary resistance) ([3]; 0.1 mg/kg)
O=C1C(=O)c2c(nc3ccccn23)-c2ccccc21 [Example a, 5,6-Dihydro-5,6-dioxo-naphtho[1',2':4,5]imidazo[1,2-a] pyridine] | 306 nM | 32 ± 7% | -1 % of control | -28 % of control | no mortality was observable | no toxic effect was observable |  |  |  |  |  | 
Cc1ccn2c3c(nc2c1)-c1ccccc1C(=O)C3=O [Example 2, 5,6-Dihydro-5,6-dioxo-10-methyl-naphtho[1',2':4,5]-imidazo[1,2-a] pyridine] | 271 nM | 28 ± 4% |  |  | no mortality was observable | no toxic effect was observable | 11 % of control | 13 % of control | -10 % of control | -15 % of control |  | 
O=C1C(=O)c2c(nc3ccc(Cl)cn23)-c2ccccc21 [Example c, 9-Chloro-5,6-dihydro-5,6-dioxo-naphtho[1',2':4,5]-imidazo[1,2-a]pyridine] | 157 nM | 27 ± 4% |  |  | no mortality was observable | no toxic effect was observable | 17 % of control | 10 % of control | -14 % of control | -11 % of control | 29 % of control and 17 % of control | 
Cc1ccc2nc3c(n2c1)C(=O)C(=O)c1ccccc1-3 [Example 1, 5,6-Dihydro-5,6-dioxo-9-methyl-naphtho[1',2':4,5]-imidazo[1,2-a]pyridine] | 170 nM | 20 ± 4% |  |  |  |  |  |  |  |  |  | 

Further lines, with some results ahead:

EC50 [1] | SMILES | Emax [1] | Effect at 2 hours (hyperpermeability induced by zymosan) ([2]; 5 mg/kg) | Effect at 4 hours (hyperpermeability induced by zymosan) ([2]; 5 mg/kg) | mortality (mice) | toxic effect (mice) | Effect at 4 hours (capillary resistance) ([3]; 5 mg/kg) | Effect at 6 hours (capillary resistance) ([3]; 5 mg/kg) | Effect at 2 hours (hyperpermeability induced by zymosan) ([2]; 0.1 mg/kg) | Effect at 4 hours (hyperpermeability induced by zymosan) ([2]; 0.1 mg/kg) | Effect at 6 hours (capillary resistance) ([3]; 0.1 mg/kg) | Effect at 4 hours (capillary resistance) ([3]; 0.1 mg/kg)
450 nM | O=C1C(=O)c2c(nc3ncccn23)-c2ccccc21 [Example f] | 56 ± 7% |  |  |  |  |  |  |  |  |  | 
58 nM | O=C1C(=O)c2c(nc3cc(Cl)ccn23)-c2ccccc21 [Example 12, 10-Chloro-5,6-dihydro-5,6-dioxo-naphtho[1',2':4,5]-imidazo[1,2-a] pyridine] | 13 ± 3% |  |  |  |  |  |  |  |  |  | 
67 nM | O=C1c2ncccc2C(=O)c2c1nc1ccccn21 [Example h, 6,11-Dihydro-6,11-dioxo-pyrido[1',2':1,2]-imidazo[5,4-g]quinoline] | 18 ± 3% |  |  |  |  |  |  | -23 % of control | -5 % of control | 13 % of control | 19 % of control
200 nM | Cc1cccn2c3c(nc12)-c1ccccc1C(=O)C3=O [Example 3, 5,6-Dihydro-5,6-dioxo-11-methyl-naphtho[1',2':4,5]-imidazo[1,2-a] pyridine] | 18 ± 4% | -13 % of control | -12 % of control |  |  |  |  |  |  |  | 
